From patent US20240239775A1, “FXR REGULATOR, PREPARATION METHOD THEREFOR, PHARMACEUTICAL COMPOSITION THEREOF AND USE THEREOF” (QINGDAO RUIJI MEDICAL TECHNOLOGY CO., LTD., priority 2021, published 2024)

Columns and labels:
FXR = biological target: T1, FXR (Homo sapiens, UniProt Q96RI1); test: FXR antagonist screening by TR-FRET (LanthaScreen TR-FRET FXR co-activation assay kit); type: biochemical; details: Table 1.1, FXR antagonistic activity; TR-FRET with CDCA; geometric means of at least two independent runs
T1 construct: 5 μL of 20 nM FXR-LBD Complete Coregulator buffer G; purchased ThermoFisher PV4833
T1 sequence (Q96RI1 262-486 limits assumed): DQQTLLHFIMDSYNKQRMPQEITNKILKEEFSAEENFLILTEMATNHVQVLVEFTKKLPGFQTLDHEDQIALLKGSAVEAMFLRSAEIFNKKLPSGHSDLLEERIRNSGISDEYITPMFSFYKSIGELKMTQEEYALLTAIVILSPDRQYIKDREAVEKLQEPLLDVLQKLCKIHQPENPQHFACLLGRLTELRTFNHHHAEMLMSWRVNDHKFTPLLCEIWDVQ
Method in brief: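 FXR-LBD (20 nM working solution) mixed with compound, CDCA (200 μM working solution) as agonist, Fluorescein-SRC2-2 and Tb-anti-GST antibody in Coregulator buffer G; 10 h at room temperature. Coactivator recruitment read by TR-FRET, triplicate wells.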

Structure (SMILES) | IC50 (FXR) [µM] | melting point
Cc1c(C(=O)O)oc2ccc(S(=O)(=O)N(CCc3ccccc3)Cc3ccc(Br)cc3C(F)(F)F)cc12 [Example F27-S59, 3-methyl-5-(N-(2-(trifluoromethyl)-4-bromobenzyl)-N-phenethylsulfamoyl)benzofuran-2-carboxylic acid] | 50 to 100 | 150 to 151 °C
Cc1c(C(=O)O)oc2ccc(S(=O)(=O)N(CCc3ccccc3)Cc3ccc(Cl)cc3Cl)cc12 [Example F27-S60, 3-methyl-5-(N-(2,4-dichlorobenzyl)-N-phenethylsulfamoyl)benzofuran-2-carboxylic acid] | 10 to 50 | 177 to 178 °C
Cc1ccc(F)cc1CN(CCc1ccccc1)S(=O)(=O)c1ccc2oc(C(=O)O)c(C)c2c1 [Example F27-S61, 3-methyl-5-(N-(2-methyl-5-fluorobenzyl)-N-phenethylsulfamoyl)benzofuran-2-carboxylic acid] | 10 to 50 | > 380 °C (dec.)
Cc1c(C(=O)O)oc2ccc(S(=O)(=O)N(CCc3ccccc3)Cc3c(F)cc(Cl)cc3F)cc12 [Example F27-S62, 3-methyl-5-(N-(2,6-difluoro-4-chlorobenzyl)-N-phenethylsulfamoyl)benzofuran-2-carboxylic acid] | 10 to 50 | > 380 °C (dec.)
Cc1c(C(=O)O)oc2ccc(S(=O)(=O)N(CCc3ccccc3)c3ccc(N4CCOCC4)cc3)cc12 [Example F27-S63, 3-methyl-5-(N-(4-morpholinophenyl)-N-phenethylsulfamoyl)benzofuran-2-carboxyli acid] | 50 to 100 | > 380 °C (dec.)
Cc1c(C(=O)O)oc2ccc(S(=O)(=O)N(CCc3ccccc3)c3ccc(N4CCN(C)CC4)cc3)cc12 [Example F27-S64, 3-methyl-5-(N-(4-(4-methylpiperazin-1-yl)phenyl)-N-phenethylsulfamoyl)benzofuran-2-carboxylic acid] | 50 to 100 | 152 to 153 °C
Cc1c(C(=O)O)oc2ccc(S(=O)(=O)N(CCc3ccccc3)c3ccc(N4CCN(C(=O)OC(C)(C)C)CC4)cc3)cc12 [Example F27-S65, 3-methyl-5-(N-(4-(4-(tert-butoxycarbonyl)piperazin-1-yl)phenyl)-N-phenethylsulfamoyl)benzofuran-2-carboxylic acid] | 10 to 50 | > 380 °C (dec.)
Cc1c(C(=O)O)oc2ccc(S(=O)(=O)N(CCc3ccccc3)c3ccc(N4CCN(C(=O)CC(C)(C)C)CC4)cc3)cc12 [Example F27-S66, 3-methyl-5-(N-(4-(4-(3,3-dimethylbutyryl)piperazin-1-yl)phenyl)-N-phenethylsulfamoyl)benzofuran-2-carboxylic acid] | 10 to 50 | > 380 °C (dec.)
CCCOC(=O)N1CCN(c2ccc(N(CCc3ccccc3)S(=O)(=O)c3ccc4oc(C(=O)O)c(C)c4c3)cc2)CC1 [Example F27-S67, 3-methyl-5-(N-(4-(4-(propoxycarbonyl)piperazin-1-yl)phenyl)-N-phenethylsulfamoyl)benzofuran-2-carboxylic acid] | 10 to 50 | > 380 °C (dec.)
CC(=O)N1CCN(c2ccc(N(CCc3ccccc3)S(=O)(=O)c3ccc4oc(C(=O)O)c(C)c4c3)cc2)CC1 [Example F27-S68, 3-methyl-5-(N-(4-(4-acetylpiperazin-1-yl)phenyl)-N-phenethylsulfamoyl)benzofuran-2-carboxylic acid] | 50 to 100 | 183 to 184 °C
Cc1c(C(=O)O)oc2ccc(S(=O)(=O)N(CCc3ccccc3)c3ccc(N4CCN(C(=O)c5ccccc5)CC4)cc3)cc12 [Example F27-S69, 3-methyl-5-(N-(4-(4-benzoylpiperazin-1-yl)phenyl)-N-phenethylsulfamoyl)benzofuran-2-carboxylic acid] | 10 to 50 | > 380 °C (dec.)
Cc1c(C(=O)O)oc2ccc(S(=O)(=O)N(CCc3ccccc3)c3ccc(N4CCN(Cc5ccccc5)CC4)cc3)cc12 [Example F27-S70, 3-methyl-5-(N-(4-(4-benzylpiperazin-1-yl)phenyl)-N-phenethylsulfamoyl)benzofuran-2-carboxylic acid] | 10 to 50 | > 380 °C (dec.)
Cc1c(C(=O)O)oc2ccc(S(=O)(=O)N(CCc3ccccc3)c3ccc(N4CCN(C(=O)N(C)C)CC4)cc3)cc12 [Example F27-S71, 3-methyl-5-(N-(4-(4-(dimethylcarbamoyl)piperazin-1-yl)phenyl)-N-phenethylsulfamoyl)benzofuran-2-carboxylic acid] | 50 to 100 | 192 to 193 °C
Cc1c(C(=O)O)oc2ccc(S(=O)(=O)N(CCc3ccccc3)c3ccc(C4CCN(C(=O)OC(C)(C)C)CC4)cc3)cc12 [Example F27-S73, 3-methyl-5-(N-(4-(1-(tert-butoxycarbonyl)piperidin-4-yl)phenyl)-N-phenethylsulfamoyl)benzofuran-2-carboxylic acid] | 0.1 to 10 | > 380 °C (dec.)
Cc1c(C(=O)O)oc2ccc(S(=O)(=O)N(CCc3ccccc3)c3ccc(N4CCN(C(=O)OC(C)(C)C)CC4)c(C(F)(F)F)c3)cc12 [Example F27-S74, 3-methyl-5-(N-(4-(4-(tert-butoxycarbonyl)piperazin-1-yl)-3-(trifluoromethyl)phenyl)-N-phenethylsulfamoyl)benzofuran-2-carboxylic acid] | 0.1 to 10 | 215 to 216 °C
Cc1c(C(=O)O)oc2ccc(S(=O)(=O)N(CCc3ccccc3)c3ccc(N4CCN(C(=O)OC(C)(C)C)CC4)nc3)cc12 [Example F27-S75, 3-methyl-5-(N-(6-(4-(tert-butoxycarbonyl)piperazin-1-yl)pyridin-3-yl)-N-phenethylsulfamoyl)benzofuran-2-carboxylic acid] | 10 to 50 | > 380 °C (dec.)
Cc1c(C(=O)O)oc2ccc(S(=O)(=O)N(CCc3ccccc3)c3ccc(CN4CCN(C(=O)OC(C)(C)C)CC4)cc3)cc12 [Example F27-S76, 3-methyl-5-(N-(4-((4-(tert-butoxycarbonyl)piperazin-1-yl)methyl)phenyl)-N-phenethylsulfonamide)benzofuran-2-carboxylic acid] | 10 to 50 | 234 to 235 °C
Cc1c(C(=O)O)oc2ccc(S(=O)(=O)N(CCc3ccccc3)c3ccccc3N3CCN(C(=O)OC(C)(C)C)CC3)cc12 [Example F27-S77, 3-methyl-5-(N-(2-(4-(tert-butoxycarbonyl)piperazin-1-yl)phenyl)-N-phenethylsulfamoyl)benzofuran-2-carboxylic acid] | 0.1 to 10 | 168 to 169 °C
Cc1c(C(=O)O)oc2ccc(S(=O)(=O)N(CCc3ccccc3)c3cccc(N4CCN(C)CC4)c3)cc12 [Example F27-S78, 3-methyl-5-(N-(3-(4-methylpiperazin-1-yl)phenyl)-N-phenethylsulfamoyl)benzofuran-2-carboxylic acid] | 50 to 100 | 232 to 233 °C
Cc1c(C(=O)O)oc2ccc(S(=O)(=O)N(CCc3ccccc3)Cc3ccc(N4CCOCC4)cc3)cc12 [Example F27-S79] | 50 to 100 | > 380 °C (dec.)
Cc1c(C(=O)O)oc2ccc(S(=O)(=O)N(CCc3ccccc3)Cc3ccc(-c4ccccc4)cc3)cc12 [Example F27-S82, 3-methyl-5-(N-([1,1′-biphenyl]-4-ylmethyl)-N-phenethylsulfamoyl)benzofuran-2-carboxylic acid] | 50 to 100 | > 380 °C (dec.)
Cc1c(C(=O)O)oc2ccc(S(=O)(=O)N(CCc3ccccc3)Cc3ccc(-c4ccccc4C#N)cc3)cc12 [Example F27-S83] | 10 to 50 | 197 to 198 °C
Cc1c(C(=O)O)oc2ccc(S(=O)(=O)N(CCc3ccccc3)Cc3ccc(-c4ccccc4C(=O)OC(C)(C)C)cc3)cc12 [Example F27-S84, 3-methyl-5-(N-((2′-(tert-butoxycarbonyl)-[1,1′-biphenyl]-4-yl)methyl)-N-phenethylsulfamoyl)benzofuran-2-carboxylic acid] | 10 to 50 | 197 to 198 °C
Cc1c(C(=O)O)oc2ccc(S(=O)(=O)N(CCc3ccccc3)Cc3ccc(C(=O)c4ccccc4)cc3)cc12 [Example F27-S85, 3-methyl-5-(N-(4-benzoylbenzyl)-N-phenethylsulfamoyl)benzofuran-2-carboxylic acid] | 10 to 50 | 192 to 193 °C
Cc1c(C(=O)O)oc2ccc(S(=O)(=O)N(CCc3ccccc3)Cc3cccc(N4CCN(C(=O)OC(C)(C)C)CC4)c3)cc12 [Example F27-S88, 3-methyl-5-(N-(3-(4-(tert-butoxycarbonyl)piperazin-1-yl)benzyl)-N-phenethylsulfamoyl)benzofuran-2-carboxylic acid] | 0.1 to 10 | 104 to 105 °C
Cc1c(C(=O)O)oc2ccc(S(=O)(=O)N(CCc3ccccc3)c3ccccc3N3CCNCC3)cc12 [Example F27-S89, 3-methyl-5-(N-phenethyl-N-(2-(piperazin-1-yl)phenyl)sulfamoyl)benzofuran-2-carboxylic acid] | 50 to 100 | 172 to 173 °C
Cc1c(C(=O)O)oc2ccc(S(=O)(=O)N(CCc3ccccc3)c3ccccc3N3CC[N+](C)(C)CC3)cc12 [Example F27-S90, 4-(2-((2-carboxy-3-methyl-N-phenethylbenzofuran)-5-sulfonylamino)phenyl)-1,1-dimethylpiperazin-1-ium] | 50 to 100 | 246 to 247 °C
